pIC50: −log10 of the molar value. Activity calls are given as the source filed them. No cut-off for these calls is given here.
Columns and labels:
[1] = Plasma clearance in ICR mouse at 30 mg/kg, po administered as single dose via gavage by LC-MS/MS analysis; assay type: ADME, organism-based; conditions: in vivo
[2] = target: EGFR (Epidermal growth factor receptor) (Homo sapiens, UniProt P00533); experiment: Inhibition of recombinant human GST-tagged EGFR (668 to 1210 residues) expressed in baculovirus expression system at 100 nM using Tyr04 peptide as substrate incubated for 1 hr by Z'lyte assay relative to control; conditions: probe Tyr04 peptide
[3] = target: RET (Proto-oncogene tyrosine-protein kinase receptor Ret) (Homo sapiens, UniProt P07949); experiment: Inhibition of recombinant human GST-tagged RET (658 to 1114 residues) expressed in baculovirus expression system at 100 nM using Tyr 02 as substrate incubated for 1 hr in presence of ATP by Z'-LYTE assay relative to control; conditions: probe Tyr 02
[4] = target: T1, Tyrosine-protein kinase JAK3 (Mus musculus) (UniProt Q62137); experiment: Inhibition of JAK3 in anti-CD3/-CD28 coated mouse T cells assessed as reduction in IL2-induced STAT5 phosphorylation preincubated for 1 hr followed by IL2 stimulation and measured after 30 mins by Western blot analysis; conditions: T cell
T1 sequence (whole entry): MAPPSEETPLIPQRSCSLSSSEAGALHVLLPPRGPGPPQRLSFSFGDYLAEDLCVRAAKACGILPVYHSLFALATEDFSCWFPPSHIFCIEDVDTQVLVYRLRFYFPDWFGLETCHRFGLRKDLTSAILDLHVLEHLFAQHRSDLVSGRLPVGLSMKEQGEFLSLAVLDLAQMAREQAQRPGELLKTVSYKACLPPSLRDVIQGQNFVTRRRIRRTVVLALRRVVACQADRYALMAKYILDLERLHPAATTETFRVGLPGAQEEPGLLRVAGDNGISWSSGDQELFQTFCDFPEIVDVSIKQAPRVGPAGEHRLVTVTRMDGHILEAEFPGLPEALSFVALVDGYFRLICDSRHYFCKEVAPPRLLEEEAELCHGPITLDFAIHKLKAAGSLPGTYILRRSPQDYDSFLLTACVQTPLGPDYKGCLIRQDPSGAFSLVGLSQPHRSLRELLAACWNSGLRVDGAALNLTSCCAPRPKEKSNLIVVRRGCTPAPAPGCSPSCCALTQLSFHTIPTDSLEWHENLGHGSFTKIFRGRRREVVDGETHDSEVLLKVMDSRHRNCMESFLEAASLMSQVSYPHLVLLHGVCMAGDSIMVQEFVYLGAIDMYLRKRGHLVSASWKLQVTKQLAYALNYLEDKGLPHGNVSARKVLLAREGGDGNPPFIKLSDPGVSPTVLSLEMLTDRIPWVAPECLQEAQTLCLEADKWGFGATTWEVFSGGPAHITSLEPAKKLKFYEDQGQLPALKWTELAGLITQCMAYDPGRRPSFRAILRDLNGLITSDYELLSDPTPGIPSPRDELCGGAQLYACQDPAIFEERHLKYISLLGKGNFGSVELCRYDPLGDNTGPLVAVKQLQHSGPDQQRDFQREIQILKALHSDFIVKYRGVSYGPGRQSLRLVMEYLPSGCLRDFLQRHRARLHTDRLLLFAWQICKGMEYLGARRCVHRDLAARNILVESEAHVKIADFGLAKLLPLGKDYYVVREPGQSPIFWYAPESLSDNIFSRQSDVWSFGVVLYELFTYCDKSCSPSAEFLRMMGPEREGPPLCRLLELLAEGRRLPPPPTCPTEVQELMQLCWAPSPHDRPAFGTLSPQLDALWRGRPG

[5] = target: Tyrosine-protein kinase JAK2 (Homo sapiens, UniProt O60674); assay type: ADME
Mus musculus [6] = experiment: Immunosuppressive activity in Balb/c mouse model of oxazolone-induced delayed type hypersensitivity assessed as reduction in ear swelling at 30 mg/kg, po measured after 7 days; assay type: functional, organism-based; conditions: time 7.0 day
[7] = Cmax in ICR mouse at 10 mg/kg, iv administered as single dose by LC-MS/MS analysis; assay type: ADME, organism-based; design: route intravenous, dose 10 mg/kg; conditions: in vivo
[8] = target: T2, Tyrosine-protein kinase JAK3 (Homo sapiens) (UniProt P52333)
T2 sequence (whole entry): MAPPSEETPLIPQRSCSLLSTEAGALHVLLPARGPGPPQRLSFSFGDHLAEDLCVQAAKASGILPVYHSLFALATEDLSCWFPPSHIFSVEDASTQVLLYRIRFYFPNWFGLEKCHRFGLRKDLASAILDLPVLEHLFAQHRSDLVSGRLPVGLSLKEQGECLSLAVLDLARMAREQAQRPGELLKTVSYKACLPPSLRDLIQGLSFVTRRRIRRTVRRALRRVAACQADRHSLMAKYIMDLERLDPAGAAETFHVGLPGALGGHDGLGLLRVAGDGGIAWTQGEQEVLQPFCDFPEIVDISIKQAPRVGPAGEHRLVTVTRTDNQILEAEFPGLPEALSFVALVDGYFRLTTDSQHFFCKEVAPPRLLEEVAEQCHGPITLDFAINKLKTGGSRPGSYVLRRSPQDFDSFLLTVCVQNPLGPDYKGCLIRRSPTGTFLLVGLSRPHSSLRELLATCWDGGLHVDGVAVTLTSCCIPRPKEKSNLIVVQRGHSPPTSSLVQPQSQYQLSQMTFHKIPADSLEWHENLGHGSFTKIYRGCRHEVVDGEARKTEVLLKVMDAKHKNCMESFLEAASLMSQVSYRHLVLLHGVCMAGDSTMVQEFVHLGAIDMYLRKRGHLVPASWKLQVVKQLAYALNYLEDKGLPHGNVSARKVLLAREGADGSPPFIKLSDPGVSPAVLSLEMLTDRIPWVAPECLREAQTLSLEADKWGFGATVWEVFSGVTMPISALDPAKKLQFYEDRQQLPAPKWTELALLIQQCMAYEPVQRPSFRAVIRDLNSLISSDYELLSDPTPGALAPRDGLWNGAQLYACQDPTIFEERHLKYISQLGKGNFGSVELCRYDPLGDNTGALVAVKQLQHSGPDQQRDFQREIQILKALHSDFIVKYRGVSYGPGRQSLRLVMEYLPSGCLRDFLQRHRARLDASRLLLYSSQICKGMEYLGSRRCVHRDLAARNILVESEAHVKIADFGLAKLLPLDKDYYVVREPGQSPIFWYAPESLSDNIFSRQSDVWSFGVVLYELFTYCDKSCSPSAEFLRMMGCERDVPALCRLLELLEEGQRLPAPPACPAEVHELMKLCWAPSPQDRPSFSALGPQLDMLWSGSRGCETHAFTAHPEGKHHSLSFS

[9] = MRT (0 to infinity) in ICR mouse at 30 mg/kg, po administered as single dose via gavage by LC-MS/MS analysis; assay type: ADME, organism-based; conditions: in vivo
[10] = target: T1, Tyrosine-protein kinase JAK3 (Mus musculus); experiment: Inhibition of JAK3 in anti-CD3/-CD28 coated mouse T cells assessed as reduction in IL15-induced STAT5 phosphorylation preincubated for 1 hr followed by […] and measured after 30 mins by Western blot analysis; conditions: T cell
Mus musculus [11] = experiment: Immunosuppressive activity in po dosed Balb/c mouse model of oxazolone-induced delayed type hypersensitivity assessed as reduction in ear swelling measured after 7 days; assay type: functional, organism-based; conditions: time 7.0 day

Sequence of Tyrosine-protein kinase JAK2 (O60674 whole entry): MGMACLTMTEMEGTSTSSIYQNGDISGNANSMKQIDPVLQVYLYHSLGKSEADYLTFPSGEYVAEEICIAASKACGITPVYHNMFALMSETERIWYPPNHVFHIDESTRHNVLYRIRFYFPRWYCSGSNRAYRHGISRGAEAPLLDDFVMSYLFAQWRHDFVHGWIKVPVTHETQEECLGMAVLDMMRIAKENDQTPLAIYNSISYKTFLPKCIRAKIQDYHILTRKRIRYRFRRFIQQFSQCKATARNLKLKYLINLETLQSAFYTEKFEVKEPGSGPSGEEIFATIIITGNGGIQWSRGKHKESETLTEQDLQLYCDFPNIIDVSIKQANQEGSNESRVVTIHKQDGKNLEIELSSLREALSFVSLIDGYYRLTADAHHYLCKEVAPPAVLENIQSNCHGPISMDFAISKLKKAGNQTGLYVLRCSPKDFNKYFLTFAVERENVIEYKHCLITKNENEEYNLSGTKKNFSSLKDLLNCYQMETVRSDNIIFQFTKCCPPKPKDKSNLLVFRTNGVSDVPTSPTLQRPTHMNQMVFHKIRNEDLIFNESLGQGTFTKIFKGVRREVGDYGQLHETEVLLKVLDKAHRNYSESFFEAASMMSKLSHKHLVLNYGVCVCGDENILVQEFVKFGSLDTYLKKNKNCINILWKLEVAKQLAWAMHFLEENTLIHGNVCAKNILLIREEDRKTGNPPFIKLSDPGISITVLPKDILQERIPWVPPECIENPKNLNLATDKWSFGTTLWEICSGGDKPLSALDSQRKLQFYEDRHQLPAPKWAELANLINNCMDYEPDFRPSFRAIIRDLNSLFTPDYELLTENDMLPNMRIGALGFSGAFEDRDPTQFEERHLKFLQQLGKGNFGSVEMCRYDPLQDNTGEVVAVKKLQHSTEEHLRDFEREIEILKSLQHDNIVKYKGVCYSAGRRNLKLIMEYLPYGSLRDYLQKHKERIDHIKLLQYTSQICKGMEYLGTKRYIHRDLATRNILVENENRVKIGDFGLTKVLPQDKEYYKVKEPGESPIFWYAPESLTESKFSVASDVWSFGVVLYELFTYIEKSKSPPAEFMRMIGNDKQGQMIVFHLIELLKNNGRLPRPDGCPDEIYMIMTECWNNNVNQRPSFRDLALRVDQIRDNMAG
Sequence of RET (Proto-oncogene tyrosine-protein kinase receptor Ret) (P07949 whole entry, the tested form may be a part): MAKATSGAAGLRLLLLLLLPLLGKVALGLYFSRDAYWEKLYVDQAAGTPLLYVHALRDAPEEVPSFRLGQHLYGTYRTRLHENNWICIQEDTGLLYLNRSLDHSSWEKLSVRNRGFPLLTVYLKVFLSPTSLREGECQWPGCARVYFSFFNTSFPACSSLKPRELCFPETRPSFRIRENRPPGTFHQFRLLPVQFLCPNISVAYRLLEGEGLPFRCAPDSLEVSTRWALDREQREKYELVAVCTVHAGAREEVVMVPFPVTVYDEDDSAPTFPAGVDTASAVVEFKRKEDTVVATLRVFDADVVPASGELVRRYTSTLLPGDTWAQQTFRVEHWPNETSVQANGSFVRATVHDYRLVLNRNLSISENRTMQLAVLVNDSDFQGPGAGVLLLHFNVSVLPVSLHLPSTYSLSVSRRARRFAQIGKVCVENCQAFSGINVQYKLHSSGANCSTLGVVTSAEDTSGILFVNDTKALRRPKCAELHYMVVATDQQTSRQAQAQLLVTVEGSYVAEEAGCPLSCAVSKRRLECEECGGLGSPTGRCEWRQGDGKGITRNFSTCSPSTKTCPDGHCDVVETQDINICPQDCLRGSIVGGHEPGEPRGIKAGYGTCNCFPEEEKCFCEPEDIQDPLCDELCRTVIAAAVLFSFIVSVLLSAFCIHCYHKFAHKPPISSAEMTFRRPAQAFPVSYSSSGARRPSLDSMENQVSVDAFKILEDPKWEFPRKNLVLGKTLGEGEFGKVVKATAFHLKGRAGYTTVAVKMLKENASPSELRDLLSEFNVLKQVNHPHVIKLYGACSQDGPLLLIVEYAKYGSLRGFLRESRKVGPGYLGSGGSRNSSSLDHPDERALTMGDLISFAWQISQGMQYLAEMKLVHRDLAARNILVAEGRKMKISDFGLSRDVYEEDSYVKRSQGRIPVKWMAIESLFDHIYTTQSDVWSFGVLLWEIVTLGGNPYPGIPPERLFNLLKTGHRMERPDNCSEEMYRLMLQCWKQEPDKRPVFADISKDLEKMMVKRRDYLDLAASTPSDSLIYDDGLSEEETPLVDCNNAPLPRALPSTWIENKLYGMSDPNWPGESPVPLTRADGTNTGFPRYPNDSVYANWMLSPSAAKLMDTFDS
Sequence of EGFR (Epidermal growth factor receptor) (P00533 whole entry, the tested form may be a part): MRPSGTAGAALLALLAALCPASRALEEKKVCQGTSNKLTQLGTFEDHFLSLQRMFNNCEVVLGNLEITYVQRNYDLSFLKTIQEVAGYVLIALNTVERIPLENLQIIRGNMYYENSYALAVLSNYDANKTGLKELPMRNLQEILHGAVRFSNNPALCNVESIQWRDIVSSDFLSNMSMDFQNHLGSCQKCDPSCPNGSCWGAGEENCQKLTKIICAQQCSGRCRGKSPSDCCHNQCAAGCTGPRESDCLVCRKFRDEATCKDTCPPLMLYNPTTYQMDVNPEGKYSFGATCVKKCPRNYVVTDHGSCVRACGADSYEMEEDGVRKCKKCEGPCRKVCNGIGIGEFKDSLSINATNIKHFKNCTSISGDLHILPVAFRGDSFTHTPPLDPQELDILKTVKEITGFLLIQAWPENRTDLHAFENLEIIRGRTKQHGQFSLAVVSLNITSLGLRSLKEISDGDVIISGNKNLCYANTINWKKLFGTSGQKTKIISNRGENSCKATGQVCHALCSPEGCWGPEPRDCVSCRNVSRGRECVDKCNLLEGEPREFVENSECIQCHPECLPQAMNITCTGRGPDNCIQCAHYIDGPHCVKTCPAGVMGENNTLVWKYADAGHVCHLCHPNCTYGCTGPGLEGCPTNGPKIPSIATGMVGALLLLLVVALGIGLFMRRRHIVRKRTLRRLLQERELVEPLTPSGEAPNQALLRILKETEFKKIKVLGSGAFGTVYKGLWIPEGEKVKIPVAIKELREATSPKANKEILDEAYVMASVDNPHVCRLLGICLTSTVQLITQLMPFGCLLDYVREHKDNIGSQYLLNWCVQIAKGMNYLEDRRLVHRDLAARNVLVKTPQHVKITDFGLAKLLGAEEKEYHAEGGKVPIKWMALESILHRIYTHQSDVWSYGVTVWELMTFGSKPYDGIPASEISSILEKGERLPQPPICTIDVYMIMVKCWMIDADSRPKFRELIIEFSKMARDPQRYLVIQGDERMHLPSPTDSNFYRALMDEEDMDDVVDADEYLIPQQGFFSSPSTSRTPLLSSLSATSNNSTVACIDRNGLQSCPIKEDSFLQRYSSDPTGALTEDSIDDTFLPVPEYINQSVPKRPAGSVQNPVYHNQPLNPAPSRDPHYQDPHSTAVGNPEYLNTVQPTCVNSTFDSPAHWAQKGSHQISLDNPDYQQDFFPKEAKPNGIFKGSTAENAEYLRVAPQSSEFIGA

- CLz/F [1]: 1619 mL/min/kg
- inhibition at 1 h, 0.1 µM [2]: 1.2%
- inhibition at 1 h, 0.1 µM [3]: 2.9%
- inhibition [4]: Dose-dependent effect
- pIC50 [5]: 6.00
- Cmax [7]: 8760 ng/mL
- TDI [8]: Active
- MRT inf [9]: 1.42 h
- inhibition [10]: Dose-dependent effect
SMILES: C=CC(=O)Nc1ccc(-c2ccnc(Nc3ccc(N4CCOCC4)cc3)n2)cc1
- Activity (Mus musculus [6]): Active
- Activity (Mus musculus [11]): Dose-dependent effect
